Assay results published in article PMC6274539, “Photoactivatable Caged Prodrugs of VEGFR-2 Kinase Inhibitors” (Molecules, 2016).

Columns and labels:
Assay in all cases: kinase profiling, radioactive filter binding assay
Assay type in all cases: biochemical
DYRK2 = DYRK2 (Homo sapiens, UniProt Q92630); settings: 0.1 µM compound, assay duplicates; read-out: residual activity of DYRK2, mean percentage activity
Procedure: (§1) The used method was a radioactive filter binding assay using ^33P ATP, for details see references. The substances were dissolved in DMSO at tested concentration of 0.1 µM. The mean percentage residual kinase activity and standard deviations of assay duplicates were determined. Analyses were performed by the International Center for Kinase Profiling at the University of Dundee, UK.

PRK2 = PRK2 (Homo sapiens, UniProt Q16513); settings: 0.1 µM compound, assay duplicates; read-out: residual activity of PRK2, mean percentage activity
Procedure: as §1

PHK = settings: 0.1 µM compound, assay duplicates
Procedure: as §1

CAMK1 = CAMK1 (Homo sapiens, UniProt Q14012); settings: 0.1 µM compound, assay duplicates; read-out: residual activity of CAMK1, mean percentage activity
Procedure: as §1

ROCK 2 = ROCK 2 (Homo sapiens, UniProt O75116); settings: 0.1 µM compound, assay duplicates; read-out: residual activity of ROCK 2, mean percentage activity
Procedure: as §1

TBK1 (DU12569) = TBK1 (DU12569) (Homo sapiens, UniProt Q9UHD2); settings: 0.1 µM compound, assay duplicates; read-out: residual activity of TBK1 (DU12569), mean percentage activity
Procedure: as §1

ERK8 = ERK8 (Homo sapiens, UniProt Q8TD08); settings: 0.1 µM compound, assay duplicates; read-out: residual activity of ERK8, mean percentage activity
Sequence of ERK8 (Q8TD08 whole entry): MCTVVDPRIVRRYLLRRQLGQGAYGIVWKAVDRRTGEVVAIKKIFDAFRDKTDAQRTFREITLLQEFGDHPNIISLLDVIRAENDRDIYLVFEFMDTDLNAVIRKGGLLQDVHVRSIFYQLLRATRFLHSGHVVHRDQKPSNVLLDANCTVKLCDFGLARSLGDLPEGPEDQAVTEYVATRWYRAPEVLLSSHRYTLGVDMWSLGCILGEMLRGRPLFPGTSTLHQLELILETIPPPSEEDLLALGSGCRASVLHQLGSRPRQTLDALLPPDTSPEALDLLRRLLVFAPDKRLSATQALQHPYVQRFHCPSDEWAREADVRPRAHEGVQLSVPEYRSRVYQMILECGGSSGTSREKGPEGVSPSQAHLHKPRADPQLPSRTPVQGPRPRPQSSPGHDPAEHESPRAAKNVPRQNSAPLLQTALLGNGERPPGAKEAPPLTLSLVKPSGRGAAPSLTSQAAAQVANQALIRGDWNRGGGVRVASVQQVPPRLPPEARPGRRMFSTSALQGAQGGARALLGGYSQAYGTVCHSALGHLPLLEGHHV
Procedure: as §1

PKA = PKA (Homo sapiens, UniProt P17612); settings: 0.1 µM compound, assay duplicates; read-out: residual activity of PKA, mean percentage activity
Procedure: as §1

Lck = Lck (Homo sapiens, UniProt P06239); settings: 0.1 µM compound, assay duplicates; read-out: residual activity of Lck, mean percentage activity
Sequence of Lck (P06239 whole entry): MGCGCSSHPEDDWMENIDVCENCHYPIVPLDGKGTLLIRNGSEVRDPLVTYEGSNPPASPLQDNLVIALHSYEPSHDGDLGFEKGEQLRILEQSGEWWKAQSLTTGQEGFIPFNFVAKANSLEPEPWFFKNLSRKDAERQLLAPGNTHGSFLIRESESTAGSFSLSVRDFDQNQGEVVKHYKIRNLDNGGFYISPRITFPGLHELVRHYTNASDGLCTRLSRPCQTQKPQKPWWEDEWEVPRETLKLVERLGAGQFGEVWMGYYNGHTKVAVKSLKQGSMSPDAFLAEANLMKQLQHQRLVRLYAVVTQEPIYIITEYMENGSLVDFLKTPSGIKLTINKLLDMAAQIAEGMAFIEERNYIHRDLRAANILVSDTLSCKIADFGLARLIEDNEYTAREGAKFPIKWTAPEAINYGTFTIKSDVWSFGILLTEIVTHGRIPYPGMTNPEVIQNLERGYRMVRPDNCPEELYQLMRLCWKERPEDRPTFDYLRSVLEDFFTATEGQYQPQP
Procedure: as §1

PLK1 = PLK1 (Homo sapiens, UniProt P53350); settings: 0.1 µM compound, assay duplicates; read-out: residual activity of PLK1, mean percentage activity
Sequence of PLK1 (P53350 whole entry): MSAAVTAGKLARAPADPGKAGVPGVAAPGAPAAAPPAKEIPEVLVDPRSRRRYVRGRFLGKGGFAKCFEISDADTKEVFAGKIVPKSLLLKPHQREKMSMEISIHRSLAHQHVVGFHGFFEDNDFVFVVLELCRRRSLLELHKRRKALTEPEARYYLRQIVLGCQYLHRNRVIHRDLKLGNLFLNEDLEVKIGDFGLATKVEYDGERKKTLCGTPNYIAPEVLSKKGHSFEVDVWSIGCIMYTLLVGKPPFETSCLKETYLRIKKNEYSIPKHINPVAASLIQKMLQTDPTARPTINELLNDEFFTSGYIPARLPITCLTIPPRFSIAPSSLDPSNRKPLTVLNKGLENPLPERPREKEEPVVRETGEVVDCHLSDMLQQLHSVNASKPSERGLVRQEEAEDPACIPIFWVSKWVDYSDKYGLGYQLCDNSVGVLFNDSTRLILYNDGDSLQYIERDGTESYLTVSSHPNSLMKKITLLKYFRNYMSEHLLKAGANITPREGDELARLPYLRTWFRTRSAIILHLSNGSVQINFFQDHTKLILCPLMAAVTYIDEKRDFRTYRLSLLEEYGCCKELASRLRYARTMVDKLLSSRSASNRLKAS
Procedure: as §1

EPH-B3 = EPH-B3 (Homo sapiens, UniProt P54753); settings: 0.1 µM compound, assay duplicates; read-out: residual activity of EPH-B3, mean percentage activity
Procedure: as §1

PIM3 = PIM3 (Homo sapiens, UniProt Q86V86); settings: 0.1 µM compound, assay duplicates; read-out: residual activity of PIM3, mean percentage activity
Procedure: as §1

CAMKKb = CAMKKb (Homo sapiens, UniProt Q96RR4); settings: 0.1 µM compound, assay duplicates; read-out: residual activity of CAMKKb, mean percentage activity
Procedure: as §1

JNK2 = JNK2 (Homo sapiens, UniProt P45984); settings: 0.1 µM compound, assay duplicates; read-out: residual activity of JNK2, mean percentage activity
Sequence of JNK2 (P45984 whole entry): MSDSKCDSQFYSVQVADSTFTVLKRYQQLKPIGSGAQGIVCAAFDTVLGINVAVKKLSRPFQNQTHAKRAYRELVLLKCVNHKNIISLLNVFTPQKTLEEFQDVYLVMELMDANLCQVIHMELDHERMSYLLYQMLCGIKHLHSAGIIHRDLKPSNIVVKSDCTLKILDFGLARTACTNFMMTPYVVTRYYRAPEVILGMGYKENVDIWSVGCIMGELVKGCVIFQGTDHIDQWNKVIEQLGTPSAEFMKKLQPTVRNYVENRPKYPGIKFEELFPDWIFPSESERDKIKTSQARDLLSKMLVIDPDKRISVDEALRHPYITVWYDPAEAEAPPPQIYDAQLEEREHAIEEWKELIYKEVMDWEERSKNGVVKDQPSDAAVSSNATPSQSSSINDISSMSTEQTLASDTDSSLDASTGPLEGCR
Procedure: as §1

p38s MAPK = p38s MAPK (Homo sapiens, UniProt O15264); settings: 0.1 µM compound, assay duplicates; read-out: residual activity of p38s MAPK, mean percentage activity
Sequence of p38s MAPK (O15264 whole entry): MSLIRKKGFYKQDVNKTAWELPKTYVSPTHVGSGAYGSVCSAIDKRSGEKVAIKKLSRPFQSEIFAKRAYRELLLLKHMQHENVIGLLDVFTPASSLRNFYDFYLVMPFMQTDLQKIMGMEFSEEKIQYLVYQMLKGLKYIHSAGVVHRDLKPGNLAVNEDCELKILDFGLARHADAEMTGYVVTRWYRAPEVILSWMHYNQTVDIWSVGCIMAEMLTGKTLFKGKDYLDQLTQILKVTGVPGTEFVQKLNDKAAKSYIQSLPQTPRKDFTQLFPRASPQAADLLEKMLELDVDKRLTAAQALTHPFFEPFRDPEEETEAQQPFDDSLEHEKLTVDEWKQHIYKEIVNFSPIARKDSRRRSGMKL
Procedure: as §1

IKKb = IKKb (Homo sapiens, UniProt O14920); settings: 0.1 µM compound, assay duplicates; read-out: residual activity of IKKb, mean percentage activity
Procedure: as §1

CHK2 = CHK2 (Homo sapiens, UniProt O96017); settings: 0.1 µM compound, assay duplicates; read-out: residual activity of CHK2, mean percentage activity
Sequence of CHK2 (O96017 whole entry): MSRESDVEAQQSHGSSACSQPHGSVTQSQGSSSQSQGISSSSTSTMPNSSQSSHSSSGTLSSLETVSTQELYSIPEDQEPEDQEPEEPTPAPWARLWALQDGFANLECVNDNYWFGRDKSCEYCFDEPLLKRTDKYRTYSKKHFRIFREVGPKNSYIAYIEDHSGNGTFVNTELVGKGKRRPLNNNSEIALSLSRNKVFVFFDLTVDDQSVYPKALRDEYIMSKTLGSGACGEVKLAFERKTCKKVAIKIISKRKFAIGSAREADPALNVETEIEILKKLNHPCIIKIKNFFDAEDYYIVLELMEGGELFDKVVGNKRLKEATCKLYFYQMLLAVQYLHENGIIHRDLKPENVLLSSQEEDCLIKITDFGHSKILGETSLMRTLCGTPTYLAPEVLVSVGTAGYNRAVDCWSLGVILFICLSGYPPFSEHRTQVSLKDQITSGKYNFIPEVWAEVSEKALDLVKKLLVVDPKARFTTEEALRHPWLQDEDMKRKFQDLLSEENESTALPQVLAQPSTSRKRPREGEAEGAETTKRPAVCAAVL
Procedure: as §1

PKC zeta = PKC zeta (Homo sapiens, UniProt Q05513); settings: 0.1 µM compound, assay duplicates; read-out: residual activity of PKC zeta, mean percentage activity
Procedure: as §1

HIPK2 = HIPK2 (Homo sapiens, UniProt Q9H2X6); settings: 0.1 µM compound, assay duplicates; read-out: residual activity of HIPK2, mean percentage activity
Procedure: as §1

AMPK = settings: 0.1 µM compound, assay duplicates
Procedure: as §1

p38a MAPK = p38a MAPK (Homo sapiens, UniProt Q16539); settings: 0.1 µM compound, assay duplicates; read-out: residual activity of p38a MAPK, mean percentage activity
Procedure: as §1

Aurora B = Aurora B (Homo sapiens, UniProt Q96GD4); settings: 0.1 µM compound, assay duplicates; read-out: residual activity of Aurora B, mean percentage activity
Procedure: as §1

MAPKAP-K2 = MAPKAP-K2 (Homo sapiens, UniProt P49137); settings: 0.1 µM compound, assay duplicates; read-out: residual activity of MAPKAP-K2, mean percentage activity
Procedure: as §1

IGF1-R = IGF1-R (Homo sapiens, UniProt P08069); settings: 0.1 µM compound, assay duplicates; read-out: residual activity of IGF1-R, mean percentage activity
Procedure: as §1

S6K1 = S6K1 (Homo sapiens, UniProt P23443); settings: 0.1 µM compound, assay duplicates; read-out: residual activity of S6K1, mean percentage activity
Procedure: as §1

IRR = IRR (Homo sapiens, UniProt P14616); settings: 0.1 µM compound, assay duplicates; read-out: residual activity of IRR, mean percentage activity
Procedure: as §1

VEG-FR = settings: 0.1 µM compound, assay duplicates
Procedure: as §1

PAK6 = PAK6 (Homo sapiens, UniProt Q9NQU5); settings: 0.1 µM compound, assay duplicates; read-out: residual activity of PAK6, mean percentage activity
Sequence of PAK6 (Q9NQU5 whole entry): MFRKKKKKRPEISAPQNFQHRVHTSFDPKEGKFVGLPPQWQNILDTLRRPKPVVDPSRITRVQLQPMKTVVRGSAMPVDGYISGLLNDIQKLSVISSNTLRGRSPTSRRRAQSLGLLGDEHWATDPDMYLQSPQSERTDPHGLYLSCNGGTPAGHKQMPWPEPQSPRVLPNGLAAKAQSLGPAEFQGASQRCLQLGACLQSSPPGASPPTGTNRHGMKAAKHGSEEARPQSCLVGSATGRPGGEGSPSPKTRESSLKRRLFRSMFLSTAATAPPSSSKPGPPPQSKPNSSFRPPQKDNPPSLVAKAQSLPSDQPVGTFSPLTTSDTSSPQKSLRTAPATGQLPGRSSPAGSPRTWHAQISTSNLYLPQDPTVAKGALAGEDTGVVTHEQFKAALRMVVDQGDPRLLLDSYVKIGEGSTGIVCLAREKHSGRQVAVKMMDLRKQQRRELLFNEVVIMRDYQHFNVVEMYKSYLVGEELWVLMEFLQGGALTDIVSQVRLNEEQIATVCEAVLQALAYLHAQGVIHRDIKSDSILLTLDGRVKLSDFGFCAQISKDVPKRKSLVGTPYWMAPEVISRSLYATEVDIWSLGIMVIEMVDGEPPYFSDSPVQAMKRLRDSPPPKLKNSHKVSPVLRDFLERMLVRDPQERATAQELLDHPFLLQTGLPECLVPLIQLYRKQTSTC
Procedure: as §1

EPH A2 = EPH A2 (Homo sapiens, UniProt P29317); settings: 0.1 µM compound, assay duplicates; read-out: residual activity of EPH A2, mean percentage activity
Sequence of EPH A2 (P29317 24-976): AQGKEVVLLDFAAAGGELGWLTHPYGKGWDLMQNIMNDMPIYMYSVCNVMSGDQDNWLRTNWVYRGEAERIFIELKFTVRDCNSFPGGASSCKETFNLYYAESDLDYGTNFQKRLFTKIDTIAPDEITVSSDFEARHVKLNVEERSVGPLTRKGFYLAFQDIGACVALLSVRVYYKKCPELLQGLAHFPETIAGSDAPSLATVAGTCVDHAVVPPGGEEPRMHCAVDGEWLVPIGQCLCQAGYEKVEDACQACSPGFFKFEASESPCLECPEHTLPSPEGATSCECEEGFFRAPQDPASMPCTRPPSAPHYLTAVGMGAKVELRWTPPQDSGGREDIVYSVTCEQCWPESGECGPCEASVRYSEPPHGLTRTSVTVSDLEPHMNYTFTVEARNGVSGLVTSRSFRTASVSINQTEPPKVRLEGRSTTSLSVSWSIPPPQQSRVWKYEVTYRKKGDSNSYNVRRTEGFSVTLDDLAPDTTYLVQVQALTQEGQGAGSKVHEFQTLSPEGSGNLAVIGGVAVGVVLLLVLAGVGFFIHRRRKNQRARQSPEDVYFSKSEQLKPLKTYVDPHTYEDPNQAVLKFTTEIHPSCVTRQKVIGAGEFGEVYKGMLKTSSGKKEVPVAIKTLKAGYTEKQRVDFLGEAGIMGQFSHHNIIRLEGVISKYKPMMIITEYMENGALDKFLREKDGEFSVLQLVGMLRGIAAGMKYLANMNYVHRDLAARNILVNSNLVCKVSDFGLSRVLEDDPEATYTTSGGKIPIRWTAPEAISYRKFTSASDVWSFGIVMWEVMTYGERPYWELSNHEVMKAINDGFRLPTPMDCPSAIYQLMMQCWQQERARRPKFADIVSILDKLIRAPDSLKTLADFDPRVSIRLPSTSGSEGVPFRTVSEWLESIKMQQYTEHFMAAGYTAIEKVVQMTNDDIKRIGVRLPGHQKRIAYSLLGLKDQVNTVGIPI
Procedure: as §1

SMILES	remaining activity at 0.1 µM (DYRK2) [%]	remaining activity at 0.1 µM (PRK2) [%]	residual activity of PHK, mean percentage activity (PHK) [%]	remaining activity at 0.1 µM (CAMK1) [%]	remaining activity at 0.1 µM (ROCK 2) [%]	remaining activity at 0.1 µM (TBK1 (DU12569)) [%]	remaining activity at 0.1 µM (ERK8) [%]	remaining activity at 0.1 µM (PKA) [%]	remaining activity at 0.1 µM (Lck) [%]	remaining activity at 0.1 µM (PLK1) [%]	remaining activity at 0.1 µM (EPH-B3) [%]	remaining activity at 0.1 µM (PIM3) [%]	remaining activity at 0.1 µM (CAMKKb) [%]	remaining activity at 0.1 µM (JNK2) [%]	remaining activity at 0.1 µM (p38s MAPK) [%]	remaining activity at 0.1 µM (IKKb) [%]	remaining activity at 0.1 µM (CHK2) [%]	remaining activity at 0.1 µM (PKC zeta) [%]	remaining activity at 0.1 µM (HIPK2) [%]	residual activity of AMPK, mean percentage activity (AMPK) [%]	other results
COc1cc(C2=C(c3c[nH]c4ccccc34)C(=O)NC2=O)cc(OC)c1OC [Compound 1, 3-(1H-Indol-3-yl)-4-(3,4,5-trimethoxyphenyl)-1H-pyrrole-2,5-dione]	57	84	73	107	97	88	46	93	91	79	104	5	81	78	108	102	64	102	23	78	remaining activity at 0.1 µM (p38a MAPK): 89%; remaining activity at 0.1 µM (Aurora B): 84%; remaining activity at 0.1 µM (MAPKAP-K2): 94%; remaining activity at 0.1 µM (IGF1-R): 90%; remaining activity at 0.1 µM (S6K1): 65%; remaining activity at 0.1 µM (IRR): 58%; residual activity of VEG-FR, mean percentage activity (VEG-FR): 10%; remaining activity at 0.1 µM (PAK6): 97%; remaining activity at 0.1 µM (EPH A2): 104%
COc1cc2c3c(c4c5ccccc5[nH]c4c2c(OC)c1OC)C(=O)NC3=O [Compound 3, 5,6,7-Trimethoxybenzo[a]pyrrolo[3,4-c]carbazole-1,3(2H,8H)-dione]	17	52	41	94	88	73	11	90	91	49	133	4	49	93	90	113	63	98	7	75	remaining activity at 0.1 µM (p38a MAPK): 78%; remaining activity at 0.1 µM (Aurora B): 47%; remaining activity at 0.1 µM (MAPKAP-K2): 95%; remaining activity at 0.1 µM (IGF1-R): 65%; remaining activity at 0.1 µM (S6K1): 28%; remaining activity at 0.1 µM (IRR): 41%; residual activity of VEG-FR, mean percentage activity (VEG-FR): 37%; remaining activity at 0.1 µM (PAK6): 99%; remaining activity at 0.1 µM (EPH A2): 109%
